According to ChEMBL document CHEMBL4257522, “Synthesis and preliminary anti-inflammatory and anti-bacterial evaluation of some diflunisal aza-analogs” (Medchemcomm, 2018):
Activity calls are given as the source filed them. The calls are words filed in the database; no cut-off is given here.

Legend:
Macrophage cell line [1] = experiment: Cytotoxicity against human PBMC-differentiated macrophages treated for 24 hrs followed by compound washout and measured after 48 hrs by MTT assay; type: cell-based
Macrophage cell line [2] = experiment: Antiinflammatory activity in human PBMC-differentiated macrophages assessed as inhibition of LPS-induced prostaglandin production at 0.01 to 10 uM measured after 24 hrs by ELISA; type: functional, cell-based
Macrophage cell line [3] = experiment: Induction of IL-8 production in human PBMC-differentiated macrophages after 24 hrs by ELISA; type: cell-based
Macrophage cell line [4] = experiment: Induction of IL-1beta production in human PBMC-differentiated macrophages after 24 hrs by ELISA; type: cell-based
Macrophage cell line [5] = experiment: Induction of prostaglandin production in human PBMC-differentiated macrophages after 24 hrs by ELISA; type: cell-based
Staphylococcus aureus [6] = experiment: Toxicity in Staphylococcus aureus ATCC 33592 up to 32 uM measured after 16 hrs; type: organism-based
Streptococcus pyogenes [7] = experiment: Toxicity in Streptococcus pyogenes ATCC 14289 up to 32 uM measured after 16 hrs; type: organism-based
Klebsiella pneumoniae [8] = experiment: Toxicity in Klebsiella pneumoniae ATCC 13883 up to 32 uM measured after 16 hrs; type: organism-based
Enterococcus faecium [9] = experiment: Toxicity in Enterococcus faecium ATCC 700221 up to 32 uM measured after 16 hrs; type: organism-based; details: in vitro
Escherichia coli [10] = experiment: Toxicity in Escherichia coli ATCC 43894 up to 32 uM measured after 16 hrs; type: organism-based
Staphylococcus aureus [11] = experiment: Potentiation of methicillin-induced antibacterial activity against Staphylococcus aureus ATCC 33592 assessed as minimum modulatory concentration up to 32 uM measured after 16 hrs in presence of MIC/4 methicillin; type: functional; details: ATCC 33592, 16 h, read-out: MEC
Staphylococcus aureus [12] = experiment: Potentiation of geneticin-induced antibacterial activity against Staphylococcus aureus ATCC 33592 assessed as minimum modulatory concentration up to 32 uM measured after 16 hrs in presence of MIC/4 geneticin; type: functional; details: ATCC 33592, 16 h, read-out: MEC
Staphylococcus aureus [13] = experiment: Potentiation of ciprofloxacin-induced antibacterial activity against Staphylococcus aureus ATCC 33592 assessed as minimum modulatory concentration up to 32 uM measured after 16 hrs in presence of MIC/4 ciprofloxacin; type: functional; details: ATCC 33592, 16 h, read-out: MEC
Staphylococcus aureus [14] = experiment: Potentiation of tetracycline-induced antibacterial activity against Staphylococcus aureus ATCC 33592 assessed as minimum modulatory concentration up to 32 uM measured after 16 hrs in presence of MIC/4 tetracycline; type: functional; details: ATCC 33592, 16 h, read-out: MEC
Staphylococcus aureus [15] = experiment: Potentiation of erythromycin-induced antibacterial activity against Staphylococcus aureus ATCC 33592 assessed as minimum modulatory concentration up to 32 uM measured after 16 hrs in presence of MIC/4 erythromycin; type: functional; details: ATCC 33592, 16 h, read-out: MEC
Streptococcus pyogenes [16] = experiment: Potentiation of methicillin-induced antibacterial activity against Streptococcus pyogenes ATCC 14289 assessed as minimum modulatory concentration up to 32 uM measured after 16 hrs in presence of MIC/4 methicillin; type: functional; details: ATCC 14289, 16 h, read-out: MEC
Streptococcus pyogenes [17] = experiment: Potentiation of geneticin-induced antibacterial activity against Streptococcus pyogenes ATCC 14289 assessed as minimum modulatory concentration up to 32 uM measured after 16 hrs in presence of MIC/4 geneticin; type: functional; details: ATCC 14289, 16 h, read-out: MEC
Streptococcus pyogenes [18] = experiment: Potentiation of ciprofloxacin-induced antibacterial activity against Streptococcus pyogenes ATCC 14289 assessed as minimum modulatory concentration up to 32 uM measured after 16 hrs in presence of MIC/4 ciprofloxacin; type: functional; details: ATCC 14289, 16 h, read-out: MEC
Streptococcus pyogenes [19] = experiment: Potentiation of tetracycline-induced antibacterial activity against Streptococcus pyogenes ATCC 14289 assessed as minimum modulatory concentration up to 32 uM measured after 16 hrs in presence of MIC/4 tetracycline; type: functional; details: ATCC 14289, 16 h, read-out: MEC
Streptococcus pyogenes [20] = experiment: Potentiation of erythromycin-induced antibacterial activity against Streptococcus pyogenes ATCC 14289 assessed as minimum modulatory concentration up to 32 uM measured after 16 hrs in presence of MIC/4 erythromycin; type: functional; details: ATCC 14289, 16 h, read-out: MEC
Klebsiella pneumoniae [21] = experiment: Potentiation of geneticin-induced antibacterial activity against Klebsiella pneumoniae ATCC 13883 assessed as minimum modulatory concentration up to 32 uM measured after 16 hrs in presence of MIC/4 geneticin; type: functional; details: ATCC 13883, 16 h, read-out: MEC
Klebsiella pneumoniae [22] = experiment: Potentiation of ciprofloxacin-induced antibacterial activity against Klebsiella pneumoniae ATCC 13883 assessed as minimum modulatory concentration up to 32 uM measured after 16 hrs in presence of MIC/4 ciprofloxacin; type: functional; details: ATCC 13883, 16 h, read-out: MEC
Klebsiella pneumoniae [23] = experiment: Potentiation of tetracycline-induced antibacterial activity against Klebsiella pneumoniae ATCC 13883 assessed as minimum modulatory concentration up to 32 uM measured after 16 hrs in presence of MIC/4 tetracycline; type: functional; details: ATCC 13883, 16 h, read-out: MEC
Enterococcus faecium [24] = experiment: Potentiation of methicillin-induced antibacterial activity against Enterococcus faecium ATCC 700221 assessed as minimum modulatory concentration up to 32 uM measured after 16 hrs in presence of MIC/4 methicillin; type: functional; details: ATCC 700221, 16 h, read-out: MEC
Enterococcus faecium [25] = experiment: Potentiation of geneticin-induced antibacterial activity against Enterococcus faecium ATCC 700221 assessed as minimum modulatory concentration up to 32 uM measured after 16 hrs in presence of MIC/4 geneticin; type: functional; details: ATCC 700221, 16 h, read-out: MEC
Enterococcus faecium [26] = experiment: Potentiation of tetracycline-induced antibacterial activity against Enterococcus faecium ATCC 700221 assessed as minimum modulatory concentration up to 32 uM measured after 16 hrs in presence of MIC/4 tetracycline; type: functional; details: ATCC 700221, 16 h, read-out: MEC
Enterococcus faecium [27] = experiment: Potentiation of erythromycin-induced antibacterial activity against Enterococcus faecium ATCC 700221 assessed as minimum modulatory concentration up to 32 uM measured after 16 hrs in presence of MIC/4 erythromycin; type: functional; details: ATCC 700221, 16 h, read-out: MEC
Pseudomonas aeruginosa [28] = experiment: Potentiation of methicillin-induced antibacterial activity against Pseudomonas aeruginosa ATCC BAA-2108 assessed as minimum modulatory concentration up to 32 uM measured after 16 hrs in presence of MIC/4 methicillin; type: functional; details: ATCC BAA-2108, 16 h, read-out: MEC
Pseudomonas aeruginosa [29] = experiment: Potentiation of ciprofloxacin-induced antibacterial activity against Pseudomonas aeruginosa ATCC BAA-2108 assessed as minimum modulatory concentration up to 32 uM measured after 16 hrs in presence of MIC/4 ciprofloxacin; type: functional; details: ATCC BAA-2108, 16 h, read-out: MEC
Pseudomonas aeruginosa [30] = experiment: Potentiation of tetracycline-induced antibacterial activity against Pseudomonas aeruginosa ATCC BAA-2108 assessed as minimum modulatory concentration up to 32 uM measured after 16 hrs in presence of MIC/4 tetracycline; type: functional; details: ATCC BAA-2108, 16 h, read-out: MEC
Pseudomonas aeruginosa [31] = experiment: Potentiation of erythromycin-induced antibacterial activity against Pseudomonas aeruginosa ATCC BAA-2108 assessed as minimum modulatory concentration up to 32 uM measured after 16 hrs in presence of MIC/4 erythromycin; type: functional; details: ATCC BAA-2108, 16 h, read-out: MEC
Escherichia coli [32] = experiment: Potentiation of ciprofloxacin-induced antibacterial activity against Escherichia coli ATCC 43894 assessed as minimum modulatory concentration up to 32 uM measured after 16 hrs in presence of MIC/4 ciprofloxacin; type: functional; details: ATCC 43894, 16 h, read-out: MEC
Escherichia coli [33] = experiment: Potentiation of tetracycline-induced antibacterial activity against Escherichia coli ATCC 43894 assessed as minimum modulatory concentration up to 32 uM measured after 16 hrs in presence of MIC/4 tetracycline; type: functional; details: ATCC 43894, 16 h, read-out: MEC
Escherichia coli [34] = experiment: Potentiation of erythromycin-induced antibacterial activity against Escherichia coli ATCC 43894 assessed as minimum modulatory concentration up to 32 uM measured after 16 hrs in presence of MIC/4 erythromycin; type: functional; details: ATCC 43894, 16 h, read-out: MEC

Structure (SMILES)	IC50 (Macrophage cell line [1])	inhibition (Macrophage cell line [2])	Activity (Macrophage cell line [3])	Activity (Macrophage cell line [4])	Activity (Macrophage cell line [5])	Activity (Staphylococcus aureus [6])	Activity (Streptococcus pyogenes [7])	Activity (Klebsiella pneumoniae [8])	Activity (Enterococcus faecium [9])	Activity (Escherichia coli [10])	minimal effective concentration (Staphylococcus aureus [11])	minimal effective concentration (Staphylococcus aureus [12])	minimal effective concentration (Staphylococcus aureus [13])	minimal effective concentration (Staphylococcus aureus [14])	minimal effective concentration (Staphylococcus aureus [15])	minimal effective concentration (Streptococcus pyogenes [16])	minimal effective concentration (Streptococcus pyogenes [17])	minimal effective concentration (Streptococcus pyogenes [18])	minimal effective concentration (Streptococcus pyogenes [19])	minimal effective concentration (Streptococcus pyogenes [20])	further results
COc1cccc(-c2cc(C(=O)O)c(O)cn2)c1	88.6 µM	inactive	Non-Toxic	Non-Toxic	Non-Toxic	Non-Toxic	Non-Toxic	Non-Toxic	Non-Toxic	Non-Toxic	16 µM	> 32 µM	> 32 µM	> 32 µM	> 32 µM	> 32 µM	> 32 µM	> 32 µM	> 32 µM	> 32 µM	minimal effective concentration (Klebsiella pneumoniae [21]): > 32 µM; minimal effective concentration (Klebsiella pneumoniae [22]): > 32 µM; minimal effective concentration (Klebsiella pneumoniae [23]): > 32 µM; minimal effective concentration (Enterococcus faecium [24]): 16 µM; minimal effective concentration (Enterococcus faecium [25]): > 32 µM; minimal effective concentration (Enterococcus faecium [26]): > 32 µM; minimal effective concentration (Enterococcus faecium [27]): > 32 µM; minimal effective concentration (Pseudomonas aeruginosa [28]): > 32 µM; minimal effective concentration (Pseudomonas aeruginosa [29]): > 32 µM; minimal effective concentration (Pseudomonas aeruginosa [30]): > 32 µM; minimal effective concentration (Pseudomonas aeruginosa [31]): > 32 µM; minimal effective concentration (Escherichia coli [32]): > 32 µM; minimal effective concentration (Escherichia coli [33]): > 32 µM; minimal effective concentration (Escherichia coli [34]): > 32 µM
O=C(O)c1cnc(-c2ccccc2)c(O)c1	> 100 µM	inactive	Non-Toxic	Non-Toxic	Non-Toxic	Non-Toxic	Non-Toxic	Non-Toxic	Non-Toxic	Non-Toxic	0.5 µM	2 µM	> 32 µM	0.25 µM	2 µM	1 µM	8 µM	> 32 µM	4 µM	4 µM	minimal effective concentration (Klebsiella pneumoniae [21]): > 32 µM; minimal effective concentration (Klebsiella pneumoniae [22]): > 32 µM; minimal effective concentration (Klebsiella pneumoniae [23]): > 32 µM; minimal effective concentration (Enterococcus faecium [24]): 0.5 µM; minimal effective concentration (Enterococcus faecium [25]): 8 µM; minimal effective concentration (Enterococcus faecium [26]): 1 µM; minimal effective concentration (Enterococcus faecium [27]): 4 µM; minimal effective concentration (Pseudomonas aeruginosa [28]): 16 µM; minimal effective concentration (Pseudomonas aeruginosa [29]): 4 µM; minimal effective concentration (Pseudomonas aeruginosa [30]): > 32 µM; minimal effective concentration (Pseudomonas aeruginosa [31]): 4 µM; minimal effective concentration (Escherichia coli [32]): > 32 µM; minimal effective concentration (Escherichia coli [33]): > 32 µM; minimal effective concentration (Escherichia coli [34]): > 32 µM
Cc1cc(C(=O)O)c(O)c(Cc2ccccc2)n1	> 100 µM	inactive	Non-Toxic	Non-Toxic	Non-Toxic	Non-Toxic	Non-Toxic	Non-Toxic	Non-Toxic	Non-Toxic	> 32 µM	> 32 µM	> 32 µM	> 32 µM	> 32 µM	> 32 µM	> 32 µM	> 32 µM	16 µM	> 32 µM	minimal effective concentration (Klebsiella pneumoniae [21]): > 32 µM; minimal effective concentration (Klebsiella pneumoniae [22]): > 32 µM; minimal effective concentration (Klebsiella pneumoniae [23]): > 32 µM; minimal effective concentration (Enterococcus faecium [24]): > 32 µM; minimal effective concentration (Enterococcus faecium [25]): > 32 µM; minimal effective concentration (Enterococcus faecium [26]): > 32 µM; minimal effective concentration (Enterococcus faecium [27]): > 32 µM; minimal effective concentration (Pseudomonas aeruginosa [28]): > 32 µM; minimal effective concentration (Pseudomonas aeruginosa [29]): > 32 µM; minimal effective concentration (Pseudomonas aeruginosa [30]): > 32 µM; minimal effective concentration (Pseudomonas aeruginosa [31]): > 32 µM; minimal effective concentration (Escherichia coli [32]): > 32 µM; minimal effective concentration (Escherichia coli [33]): > 32 µM; minimal effective concentration (Escherichia coli [34]): > 32 µM
